Source: PubChem BioAssay (NCI)
Several values for one entry are separate records, joined by “and”; a condition that tells them apart may be missing. Equal entries are not always repeated.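 Cells were grown in 96-well plates and exposed to each compound for 48 hours at five concentrations; endpoints were interpolated linearly between bracketing concentrations, or set to the highest concentration if not reached. GI50 is the concentration that inhibits growth by half. TGI: concentration producing complete growth inhibition.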

Columns and labels:
Experiment in all cases: growth of human tumour cells (NCI), 48 h
CAKI-1 renal = test system: CAKI-1 renal
SW-620 colon = test system: SW-620 colon
A549 NSCLC = test system: A549 NSCLC
SK-MEL-2 melanoma = test system: SK-MEL-2 melanoma
ACHN renal = test system: ACHN renal
MCF7 breast = test system: MCF7 breast
SK-MEL-28 melanoma = test system: SK-MEL-28 melanoma
K-562 leukemia = test system: K-562 leukemia
MOLT-4 leukemia = test system: MOLT-4 leukemia
M14 melanoma = test system: M14 melanoma
HT29 colon = test system: HT29 colon
SNB-19 CNS = test system: SNB-19 CNS
KM12 colon = test system: KM12 colon
OVCAR-4 ovarian = test system: OVCAR-4 ovarian
SR leukemia = test system: SR leukemia
LOX IMVI melanoma = test system: LOX IMVI melanoma

SMILES | TGI (CAKI-1 renal) | TGI (SW-620 colon) | TGI (A549 NSCLC) | TGI (SK-MEL-2 melanoma) | TGI (ACHN renal) | TGI (MCF7 breast) | TGI (SK-MEL-28 melanoma) | TGI (K-562 leukemia) | TGI (MOLT-4 leukemia) | TGI (M14 melanoma) | TGI (HT29 colon) | TGI (SNB-19 CNS) | TGI (KM12 colon) | TGI (OVCAR-4 ovarian) | TGI (SR leukemia) | TGI (LOX IMVI melanoma) | GI50 (CAKI-1 renal) | GI50 (ACHN renal) | GI50 (SK-MEL-28 melanoma) | GI50 (SR leukemia)
COc1ccc(Oc2cccc(/C=C3/C(=O)Nc4ccccc43)c2)cc1 | 20.9 µM | 23.2 µM | > 100 µM | 23 µM | 23.8 µM | 12.8 µM | 23.6 µM | 7.63 µM | 13 µM | 24.3 µM | 12.9 µM | 19.1 µM | 18 µM | 27 µM |  |  |  |  |  | 
CC(=O)ON(C(C)=O)c1ccc(-c2nc3ccccc3s2)cc1 |  | > 59.9 µM | > 79 µM | 67.1 µM | 50.4 µM |  | > 70.8 µM | > 100 µM | 49.3 µM | 64 µM | 52.4 µM | > 100 µM | 33.2 µM | > 100 µM | > 100 µM | > 66.7 µM |  |  |  | 
CC(C)(C)c1cc(C(=O)Nc2cc(Br)c(Br)cc2S(N)(=O)=O)cc(C(C)(C)C)c1O | 22.8 µM | 21.4 µM | 21.3 µM | 22.7 µM | 23.4 µM | 18.8 µM | 26.2 µM | 25.7 µM | 18.8 µM | 35.9 µM | 16.2 µM | 31.1 µM | 36.4 µM | 28.7 µM |  | 19.4 µM |  |  |  | 
CC[C@]1(O)C[C@H]2CN(CCc3c([nH]c4ccccc34)[C@@](C(=O)OC)(c3cc4c(cc3OC)N(C=O)[C@H]3[C@@](O)(C(=O)OC)[C@H](OC(C)=O)[C@]5(CC)C=CCN6CC[C@]43[C@@H]65)C2)C1 | 9.22 µM and 10.8 µM and 77.2 µM | 141 µM and 18 µM |  |  |  |  | 113 µM |  | 7.59 µM and 48 µM and 23.3 µM |  | 27.2 µM | 43.1 µM and 17.7 µM |  | 132 µM and 135 µM |  |  | 1.95 µM | 0.00846 µM | 0.00464 µM | 0.00657 µM
C/C(CC/C(C)=N/O)=N\O | > 100 µM | > 100 µM | > 100 µM | > 100 µM | > 100 µM | > 100 µM | > 100 µM | > 100 µM | > 100 µM | > 100 µM | > 100 µM | > 100 µM | > 100 µM | > 100 µM |  | > 100 µM |  |  |  | 
CCNC(C)Cc1ccccc1 (stereo not given) | > 100 µM | > 100 µM | > 100 µM | > 100 µM | > 100 µM |  | > 100 µM | > 100 µM |  | > 100 µM | > 100 µM | > 100 µM | > 100 µM | > 100 µM | > 100 µM | > 100 µM |  |  |  | 
Oc1ccc(-c2csc(NNC3=NC/C(=C/c4ccc5c(c4)OCO5)S3)n2)cc1O | 90.7 µM | > 100 µM | > 100 µM | > 100 µM | > 100 µM | > 100 µM | > 100 µM |  | > 100 µM | > 100 µM | > 100 µM | > 100 µM | > 100 µM | > 100 µM |  | > 100 µM |  |  |  | 
CC[C@@]1(N(C)C)C(=O)OCc2c1cc1n(c2=O)Cc2cc3ccccc3nc2-1 |  | > 100 µM | > 100 µM | 77.5 µM | 42.2 µM | > 100 µM | > 100 µM | > 100 µM |  | > 100 µM |  | > 100 µM | > 100 µM | > 100 µM |  | 33.5 µM |  |  |  | 
CC(C)(C)OC(=O)NCCCCC(N)C(N)=O (stereo not given) | > 100 µM | > 100 µM | > 100 µM | > 100 µM | > 100 µM | > 100 µM | > 100 µM | > 100 µM | > 100 µM | > 100 µM | > 100 µM | > 100 µM | > 100 µM | > 100 µM |  | > 100 µM |  |  |  | 
CCC(C)n1c(C)nc2c1C(=O)c1ccccc1C2=O (stereo not given) |  | > 100 µM | > 100 µM | > 100 µM | > 100 µM |  | > 100 µM | > 100 µM | > 100 µM | > 100 µM | > 100 µM | > 100 µM | > 100 µM | > 100 µM | > 100 µM | > 100 µM |  |  |  | 
NC(Cc1ccc(S(=O)(=O)O)cc1)C(=O)NC(CCCCNC(=O)NCCCCC(NC(=O)C(N)Cc1ccc(S(=O)(=O)O)cc1)C(=O)NC(Cc1ccc(S(=O)(=O)O)cc1)C(=O)O)C(=O)NC(Cc1ccc(S(=O)(=O)O)cc1)C(=O)O (stereo not given) | > 100 µM | > 100 µM | > 100 µM | > 100 µM | > 100 µM | > 100 µM | > 100 µM | > 100 µM | > 100 µM | > 100 µM | > 100 µM |  | > 100 µM | > 100 µM |  | > 100 µM |  |  |  | 
COc1cc2c[n+](C)c3c4cc(OC)c(OC)cc4c(OC)cc3c2cc1OC | > 100 µM | > 100 µM | > 100 µM | > 86 µM | > 100 µM | > 100 µM | > 81.9 µM | > 41.5 µM |  | > 100 µM | > 46.7 µM | > 100 µM | > 67.1 µM | > 69.5 µM |  | > 76.5 µM |  |  |  | 
OC1[C@H]([C@H]2CCCC[C@@H]2O)CCC[C@@H]1[C@@H]1CCCC[C@H]1O (stereo not given in full) | > 100 µM | > 100 µM | > 100 µM | > 100 µM | > 100 µM |  | > 100 µM | > 100 µM | > 100 µM | > 100 µM | > 100 µM | > 100 µM | > 100 µM | > 100 µM | > 100 µM | > 100 µM |  |  |  | 
COc1cc(C=O)ccc1Oc1nnnn1-c1ccccc1 | 85.3 µM | > 100 µM | > 100 µM | > 100 µM |  |  | > 100 µM | > 100 µM | 75.1 µM | > 100 µM | > 100 µM | > 100 µM | > 100 µM | > 100 µM | 51.1 µM | > 100 µM |  |  |  | 
COc1ccc2nc3cc(Cl)ccc3c(NCCCN(Cc3cc(OC)c(OC)c(OC)c3)Cc3cc(OC)c(OC)c(OC)c3)c2c1 | 30.3 µM | 3.22 µM | 30.7 µM | 72.1 µM | 27.2 µM | 30.4 µM | 33.2 µM | 3.77 µM | 7.11 µM | 3.45 µM | 16.6 µM | 35.8 µM | 28.3 µM |  |  |  |  |  |  | 
CCOC(=O)c1ccc(Nc2cnc3cc(C(F)(F)F)ccc3n2)cc1 | > 100 µM | > 100 µM | > 100 µM |  | > 100 µM |  | > 100 µM | > 100 µM | > 100 µM |  | > 100 µM |  | > 100 µM | > 100 µM | > 100 µM | > 100 µM |  |  |  | 
